# In patent US12414565B2, “Pyridazine (THIO)amides as fungicidal compounds” (Bayer Aktiengesellschaft, priority 2018, dated 2025):
# Columns and labels:
# Alternaria alternata = Alternaria alternata in vitro cell test; type: cell-based; details: 120 h, 20 ppm of active ingredient, liquid culture, 5 days incubation, absorbance, read-out: efficacy (inhibition of fungal growth)
# Procedure: (§1) [table] Fungicides were solubilized in DMSO and the solution used to prepare the required range of concentrations. The final concentration of DMSO used in the assay was <1%. A spore suspension of A. alternata was prepared and diluted to the desired spore density. Fungicides were evaluated for their ability to inhibit spore germination and mycelium growth in liquid culture assay. The compounds were added in the desired concentration to the culture medium with spores. After 5 days incubation, fungi-toxicity of compounds was determined by spectrometric measurement of mycelium growth. Inhibition of fungal growth was determined by comparing the absorbance values in wells containing the fungicides with the absorbance in control wells without fungicides.
# [1] = test system: Colletotrichum lindemuthianum; test: Colletotrichum lindemuthianum in vitro cell test; type: cell-based; details: 144 h, 20 ppm of active ingredient, liquid culture, 6 days incubation, absorbance, read-out: efficacy (inhibition of fungal growth)
# Procedure: as §1, with “was ≤1%.” for “was <1%.”, “of C. lindemuthianum” for “of A. alternata”, “inhibit spores” for “inhibit spore”, “After 6” for “After 5”
# Sphaerotheca fuliginea = test: In vivo preventive test on Sphaerotheca fuliginea (powdery mildew on cucurbits); details: Podosphaera fuliginea, 192 h; 500 ppm of active ingredient; preventive spray on gherkin; evaluated 8 days after inoculation; 100% = no disease; read-out: efficacy
# Procedure: (§2) The active ingredients were made soluble and homogenized in a mixture of Dimethyl sulfoxide/Acetone/Tween® 80 and then diluted in water to the desired concentration.
# The young plants of gherkin were treated by spraying the active ingredient prepared as described above. Control plants were treated only with an aqueous solution of Acetone/Dimethyl sulfoxide/Tween® 80.
# After 24 hours, the plants were contaminated by spraying the leaves with an aqueous suspension of Sphaerotheca fuliginea spores. The contaminated gherkin plants were incubated for 8 days at 20° C. and at 70-80% relative humidity.
# The test was evaluated 8 days after the inoculation. 0% means an efficacy which corresponds to that of the control plants while an efficacy of 100% means that no disease was observed.
# Septoria tritici = Septoria tritici in vitro cell test; type: cell-based; details: Zymoseptoria tritici, 168 h; 20 ppm of active ingredient; liquid culture, 7 days incubation, absorbance; read-out: efficacy (inhibition of fungal growth)
# Procedure: as §1, with “≤1%.” for “<1%.”, “S. tritici” for “A. alternata”, “7” for “5”
# Pyrenophora teres = test: In vivo preventive test on Pyrenophora teres (net blotch on barley); details: 240 h, 500 ppm of active ingredient, preventive spray on barley, evaluated 10 days after inoculation, 100% = no disease, read-out: efficacy
# Procedure: as §2
# The young plants of barley were treated by spraying the active ingredient prepared as described above. Control plants were treated only with an aqueous solution of Acetone/Dimethyl sulfoxide/Tween® 80.
# After 24 hours, the plants were contaminated by spraying the leaves with an aqueous suspension of Pyrenophora teres spores. The contaminated barley plants were incubated for 48 hours at 20° C. and at 100% relative humidity and then for 8 days at 20° C. and at 70-80% relative humidity.
# The test was evaluated 10 days after the inoculation. 0% means an efficacy which corresponds to that of the control plants while an efficacy of 100% means that no disease was observed.
# Alternaria brassicae = test: In vivo preventive test on Alternaria brassicae (leaf spot on radish or cabbage); details: 144 h, 500 ppm of active ingredient, preventive spray on radish or cabbage, evaluated 6 days after inoculation, 100% = no disease, read-out: efficacy
# Procedure: as §2
# The young plants of radish or cabbage were treated by spraying the active ingredient prepared as described above. Control plants were treated only with an aqueous solution of Acetone/Dimethyl sulfoxide/Tween® 80.
# After 24 hours, the plants were contaminated by spraying the leaves with an aqueous suspension of Alternaria brassicae spores. The contaminated radish or cabbage plants were incubated for 6 days at 20° C. and at 100% relative humidity.
# The test was evaluated 6 days after the inoculation. 0% means an efficacy which corresponds to that of the control plants while an efficacy of 100% means that no disease was observed.
# Botrytis cinerea = test: In vivo preventive test on Botrytis cinerea (grey mould); details: 500 ppm of active ingredient, preventive spray on gherkin or cabbage, evaluated 4 to 5 days after inoculation, 100% = no disease, read-out: efficacy
# Procedure: as §2
# The young plants of gherkin or cabbage were treated by spraying the active ingredient prepared as described above. Control plants were treated only with an aqueous solution of Acetone/Dimethyl sulfoxide/Tween® 80.
# After 24 hours, the plants were contaminated by spraying the leaves with an aqueous suspension of Botrytis cinerea spores. The contaminated gherkin plants were incubated for 4 to 5 days at 17° C. and at 90% relative humidity. The contaminated cabbage plants were incubated for 4 to 5 days at 20° C. and at 100% relative humidity.
# The test was evaluated 4 to 5 days after the inoculation. 0% means an efficacy which corresponds to that of the control plants while an efficacy of 100% means that no disease was observed.
Structure (SMILES),inhibition at 20 ppm (Alternaria alternata) [%],inhibition at 20 ppm [1] [%],pest or weed control at 500 ppm (Sphaerotheca fuliginea) [%],inhibition at 20 ppm (Septoria tritici) [%],pest or weed control at 500 ppm (Pyrenophora teres) [%],pest or weed control at 500 ppm (Alternaria brassicae) [%],pest or weed control at 500 ppm (Botrytis cinerea) [%]
"COCCc1c(Cl)nnc(Oc2cccc(C(F)(F)F)c2)c1C(=O)NCC(F)(F)c1ccc(Br)cc1Cl [I-070, N-[2-(4-bromo-2-chloro-phenyl)-2,2-difluoro-ethyl]-6-chloro-5-(2-methoxyethyl)-3-[3-(trifluoromethyl)phenoxy]pyridazine-4-carboxamide]",90 to 100,90 to 100,90 to 100,90 to 100,90 to 100,90 to 100,90 to 100
"Cc1ccc(C(F)(F)CNC(=O)c2c(Oc3cccc(C(F)(F)F)c3)nnc(Cl)c2-c2cccnc2)c(C)c1 [I-550, 6-chloro-N-[2-(2,4-dimethylphenyl)-2,2-difluoro-ethyl]-5-(3-pyridyl)-3-[3-(trifluoromethyl)phenoxy]pyridazine-4-carboxamide]",90 to 100,90 to 100,90 to 100,90 to 100,–,90 to 100,90 to 100
"Cc1ccc(C(F)(F)CNC(=O)c2c(Oc3cccc(Cl)c3)nnc(Cl)c2C)c(C)c1 [I-790, 6-chloro-3-(3-chlorophenoxy)-N-[2-(2,4-dimethylphenyl)-2,2-difluoro-ethyl]-5-methyl-pyridazine-4-carboxamide]",90 to 100,90 to 100,90 to 100,70 to 79,–,90 to 100,90 to 100
